Data published in patent publication EP3250188B1, “PHARMACEUTICAL COMPOSITION COMPRISING APREPITANT AND METHOD FOR THE PREPARATION THEREOF” (Pharmathen S.A., priority 2015, dated 2016).
Values after ≈ are worked out from the molar mass of the structure shown. Like-named read-outs stand apart in the source and are kept apart here.

How the values were obtained:
[1] = Solubility study in FeSSIF (HPLC after 30 min stirring and centrifugation); format: physicochemical
Procedure: For the solubility study, a quantity of the solid dispersion equivalent to 10.0 mg of Aprepitant was dissolved in a 100ml volumetric flask with dissolution medium of fed state simulated intestinal fluid (FeSSIF) to a concentration of 0.1mg/ml. The solution was magnetically stirred for 30min and before injected in the HPLC it was centrifuged at 4000rpm for 5min. Finally the drug concentration was equated to the drug solubility. Table 1: Solubility of solid dispersion prepared according to example 1
Table 8: Solubilities of solid dispersions prepared by melt mixing

[2] = Dissolution, USP type II apparatus (paddles), 50 rpm, FeSSIF; format: physicochemical
Procedure: The rate and extent of drug dissolution was studied using a USP type II apparatus (paddles) at 50 rpm. The dissolution medium was a FeSSIF with pH 5.0. Table 2: Dissolution results of amorphous solid dispersions for different ratios of API to polymer compared with that of Aprepitant alone. The dissolution rate of the solid dispersions that present the best solubility was studied in USP II apparatus, 50rpm, FeSSIF medium.

[3] = cited from earlier work

C[C@@H](O[C@H]1OCCN(Cc2nc(=O)[nH][nH]2)[C@H]1c1ccc(F)cc1)c1cc(C(F)(F)F)cc(C(F)(F)F)c1 [Aprepitant]
solubility at 30 min ([1]; fed state simulated intestinal fluid (FeSSIF), fessif, thermodynamic from solid, solid dispersions prepared by spray drying, nominal concentration 0.1mg/ml, stirred 30min): 50 µg/mL (≈ 93.6 µM)
Solubility in FeSSIF ([1]; solid dispersions prepared by melt mixing at the stated temperature): 50 µg/mL (≈ 93.6 µM)
% release ([2]; 15 min, FeSSIF medium, melt mixed solid dispersions): 17,37%
% release ([2]; 15 min, FeSSIF pH 5.0, spray dried solid dispersions): 17,37%
% release ([2]; 30 min, FeSSIF medium, melt mixed solid dispersions): 38,74%
% release ([2]; 30 min, FeSSIF pH 5.0, spray dried solid dispersions): 38,74%
% release ([2]; 45 min, FeSSIF medium, melt mixed solid dispersions): 45,34%
% release ([2]; 45 min, FeSSIF pH 5.0, spray dried solid dispersions): 45,34%
% release ([2]; 60 min, FeSSIF medium, melt mixed solid dispersions): 47,38%
% release ([2]; 60 min, FeSSIF pH 5.0, spray dried solid dispersions): 47,38%
solubility ([3]; in acetonitrile): slightly soluble
solubility ([3]; in ethanol): sparingly soluble
solubility ([3]; in isopropyl acetate): sparingly soluble
solubility ([3]; in water): practically insoluble
